Results on one compound are retold here after paper PMC8808171, “Nonselective TRPC channel inhibition and suppression of aminoglycoside-induced premature termination codon readthrough by the small molecule AC1903” (The Journal of Biological Chemistry, 2022).

This experiment has as its target T1, TRPC6:C6 (Homo sapiens, UniProt Q9Y210).
T1 construct: expressed in transfected cells; host or cells: WT HEK 293 (transient)
Description: [Ca2+]i recordings (Fura-2), TRPC6:C6 in HEK 293 cells. The experiment is classed as cell-based. As to the method: Based on the findings described above, we wondered whether AC1903—which is typically used as a TRPC5 inhibitor at concentrations of 30–100 μM in cellular assays ([29], [56])—might have limited selectivity for TRPC5 channels and whether its effect on intracellular G418 levels and PTC readthrough might be the consequence of inhibition of other or multiple targets. All well-characterized TRPC channel inhibitors reported to date modulate multiple TRP(C) channels ([34], [35], [36]). […] Because limited data for the selectivity of AC1903 are available in the public domain, we decided to profile AC1903 against a selection of calcium-permeable cation channels by intracellular calcium ([Ca^2+]i) recordings using well-characterized cell lines and TRP channel activators ([46], [57], [58]), and the Ca^2+ indicator Fura-2. In these assays, cells (HEK 293, HEK T-REx, or CHO) overexpressing the relevant ion channel protein and loaded with Fura-2 AM (a cell-permeable precursor of Fura-2) were preincubated with various concentrations of AC1903 or vehicle (DMSO) for 30 min. Then, changes in ratiometric fluorescence (from background) were recorded upon addition of the respective ion channel activator. […]

T1 sequence (Q9Y210 whole entry): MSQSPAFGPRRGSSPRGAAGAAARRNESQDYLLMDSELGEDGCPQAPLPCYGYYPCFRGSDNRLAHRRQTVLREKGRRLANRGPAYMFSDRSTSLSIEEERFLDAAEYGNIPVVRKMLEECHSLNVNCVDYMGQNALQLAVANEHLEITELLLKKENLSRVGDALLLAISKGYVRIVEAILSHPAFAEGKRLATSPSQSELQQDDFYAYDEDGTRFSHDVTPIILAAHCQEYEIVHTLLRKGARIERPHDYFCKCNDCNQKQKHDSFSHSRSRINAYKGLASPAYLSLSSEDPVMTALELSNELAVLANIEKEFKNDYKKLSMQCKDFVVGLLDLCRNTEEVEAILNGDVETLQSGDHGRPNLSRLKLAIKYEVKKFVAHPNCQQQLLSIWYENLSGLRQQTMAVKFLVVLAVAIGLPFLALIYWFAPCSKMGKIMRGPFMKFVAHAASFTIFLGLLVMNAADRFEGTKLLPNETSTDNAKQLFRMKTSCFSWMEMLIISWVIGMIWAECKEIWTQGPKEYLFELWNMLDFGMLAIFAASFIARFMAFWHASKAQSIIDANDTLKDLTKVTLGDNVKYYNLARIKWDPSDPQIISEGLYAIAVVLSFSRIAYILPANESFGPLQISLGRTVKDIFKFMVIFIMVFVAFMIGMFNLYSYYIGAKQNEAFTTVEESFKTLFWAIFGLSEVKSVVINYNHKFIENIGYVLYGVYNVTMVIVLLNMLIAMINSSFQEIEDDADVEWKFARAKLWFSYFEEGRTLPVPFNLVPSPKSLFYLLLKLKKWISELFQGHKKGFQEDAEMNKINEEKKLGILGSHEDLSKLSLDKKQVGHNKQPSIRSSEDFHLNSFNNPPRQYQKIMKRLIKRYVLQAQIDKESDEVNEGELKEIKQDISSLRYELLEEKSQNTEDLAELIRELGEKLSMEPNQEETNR

Turning to `c1ccc(Cn2c(NCc3ccco3)nc3ccccc32)cc1` [AC1903], it took 15 µM to reach half-maximal inhibition (HEK 293, activator OAG (100 μM)) (IC50). Besides, the Hill slope – broadly, a measure of the steepness of the concentration-response curve – (activator OAG) is -1.5.
